The source of these data is US8501950B2, “N-cyanoalkylanthranilamides as insecticides” (Syngenta Crop Protection LLC, priority 2006, dated 2013).

Assay type in all cases: in vivo
The test system of assay [1] is Spodoptera littoralis (Egyptian Cotton Leafworm). The assay is described as follows: Example B1: activity against Spodoptera littoralis, sprayed cotton leaf discs, L1 larvae. Conditions: foliar, 72 h. The text has this:
Activity Against Spodoptera littoralis (Egyptian Cotton Leafworm)
Cotton leaf discs are placed on agar in a 24-well microtiter plate and sprayed with test solutions. After drying, the leaf discs are infested with 5 L1 larvae. The samples are checked for mortality, repellent effect, feeding behaviour, and growth inhibition 3 days after treatment (DAT).

The test system of assay [2] is Heliothis virescens (Tobacco Budworm). Description: Example B2: activity against Heliothis virescens, eggs on artificial diet. The note with it: 96 h. The procedure: Activity Against Heliothis virescens (Tobacco Budworm)
Eggs (0-24 h old) are placed in 24-well microtiter plate on artificial diet and sprayed with test solutions. After an incubation period of 4 days, samples are checked for egg mortality, larval mortality, and growth inhibition.

For assay [3], the system named is Plutella xvlostella (Diamond Back Moth). Description: Example B3: activity against Plutella xylostella, L2 larvae on artificial diet. The note with it: 120 h. The protocol: Activity Against Plutella xvlostella (Diamond Back Moth)
24-well microtiter plate (MTP) with artificial diet is sprayed with test solutions. After drying, the MTP's are infested with larvae (L2)(10-15 per well). After an incubation period of 5 days, samples are checked for larval mortality, antifeedant and growth inhibition.

Assay [4] concerns Thrips tabaci (Onion Thrips). Description: Example B7: activity against Thrips tabaci, sunflower leaf discs. Conditions: foliar, 144 h. The procedure:
Activity Against Thrips tabaci (Onion Thrips)
Sunflower leaf discs are placed on agar in a 24-well microtiter plate and sprayed with test solutions. After drying, the leaf discs are infested with a thrips population of mixed ages. After an incubation period of 6 days, samples are checked for mortality and special effects (e.g. phytotoxicity).

The subject of assay [5] is Tetranychus urticae (Two-Spotted Spider Mite). Description: Example B8: activity against Tetranychus urticae, bean leaf discs. The text has this: Activity Against Tetranychus urticae (Two-Spotted Spider Mite)
Bean leaf discs on agar in 24-well microtiter plates are sprayed with test solutions. After drying, the leaf discs are infested with mite populations of mixed ages. 8 days later, discs are checked for egg mortality, larval mortality, and adult mortality.

For assay [6], the system named is Spodoptera littoralis (Cotton Leafworm). The assay is described as follows: Example B9: systemic insecticide test for Spodoptera littoralis, maize seedlings at 12.5 ppm. The protocol:
Systemic Insecticide Test for Spodoptera littoralis (Cotton Leafworm)
[…] Seedlings are allowed to grow for six days. Subsequently leaves are cut and placed in a Petri dish (5 cm diameter), inoculated with twelve to fifteen 1st instar S. littoralis larvae and incubated for four days in a growth chamber (25° C., 50% r.h., 18:6 L:D photo period). Number of alive insects are counted and percentage of dead calculated. Tests were conducted with one replicate.

Assay [7] relates to Cydia pomonella (Codling Moth). The assay is described as follows: Example B10: activity against Cydia pomonella, sprayed diet cubes. Conditions: 336 h. The protocol: Activity Against Cydia pomonella (Codling Moth)
Standard Cydia diet cubes (1.5 cm width) are pierced with a tooth-pick and are immersed in liquid paraffin (ca. 80° C.). After the paraffin coat has hardened, an aqueous emulsion containing 12.5 ppm of active ingredient is applied using a De Vilbis sprayer (25 ml, 1 bar). After the spray coating has dried, the cubes are put into plastic containers which are then populated with two freshly hatched Cydia pomonella (1st instar). The containers are then closed with a plastic cap. After 14 days incubation at 26° C. and 40-60% relative humidity, the survival rate of the caterpillars as well as their growth regulation is determined.

Consider `Cc1cc(I)cc(C(=O)NC(C)(C#N)C2CC2)c1NC(=O)c1cc(Cl)nn1-c1ncccc1Cl` (centres unmarked) [Compound T1.1.107], for which the mortality at 200 ppm was > 80% in assay [1]; > 80% in assay [2]; > 80% in assay [3]; > 80% in assay [4]; 80% in assay [5] (Tetranychus urticae, foliar, 192 h). Also, the activity in words result in assay [5] (in vivo) is “good activity”. Besides, the mortality at 12.5 ppm in assay [6] and in assay [7] was > 80% each time.
